For one data set, the system named is Sphaerotheca fuliginea. The data set can be described thus: Sphaerotheca test (cucumber)/protective. It is filed as in vivo. The following applies: Podosphaera fuliginea, 168 h, cucumber plants, protective spray, evaluation 7 days after inoculation, read-out: Efficacy (%). As for the experimental part: Sphaerotheca Test (Cucumber)/Protective
(§1) Solvent: 49 parts by weight of N,N-dimethylformamide
(§2) Emulsifier: 1 part by weight of alkylaryl polyglycol ether
To produce a suitable preparation of active compound, 1 part by weight of active compound is mixed with the stated amounts of solvent and emulsifier, and the concentrate is diluted with water to the desired concentration. To test for protective activity, young cucumber plants are sprayed with the preparation of active compound at the stated application rate. 1 day after the treatment, the plants are inoculated with a spore suspension of Sphaerotheca fuliginea. The plants are then placed in a greenhouse at 70% relative air humidity and a temperature of 23° C. Evaluation follows 7 days after the inoculation. 0% means an efficacy which corresponds to that of the control, whereas an efficacy of 100% means that no infection is observed. In this test, the following compounds according to the invention show, at an active compound concentration of 500 ppm, an efficacy of 70% or more: […]

A further data set deals with Alternaria solani. The data set can be described thus: Alternaria test (tomato)/protective. It is filed as in vivo. Particulars: 168 h, tomato plants, protective spray, evaluation 7 days after inoculation, read-out: Efficacy (%). As for the experimental part: Alternaria Test (Tomato)/Protective
as §1, §2
To produce a suitable preparation of active compound, 1 part by weight of active compound is mixed with the stated amounts of solvent and emulsifier, and the concentrate is diluted with water to the desired concentration. To test for protective activity, young tomato plants are sprayed with the preparation of active compound at the stated application rate. 1 day after the treatment, the plants are inoculated with a spore suspension of Alternaria solani and then remain at 100% rd. humidity and 22° C. for 24 h. The plants then remain at 96% rd. atmospheric humidity and a temperature of 20° C. Evaluation is carried out 7 days after the inoculation. 0% means an efficacy which corresponds to that of the control, whereas an efficacy of 100% means that no infection is observed.
(§3) In this test, the following compounds according to the invention show, at an active compound concentration of 500 ppm, an efficacy of 70% or more: […]

Another data set deals with Leptosphaeria nodorum. The data set can be described thus: Leptosphaeria nodorum test (wheat)/protective. It is filed as in vivo. Particulars: Parastagonospora nodorum, wheat plants, protective spray, evaluation 7-9 days after inoculation, read-out: Efficacy (%). As for the experimental part: Leptosphaeria nodorum Test (Wheat)/Protective
as §1, §2
To produce a suitable preparation of active compound, 1 part by weight of active compound is mixed with the stated amounts of solvent and emulsifier, and the concentrate is diluted with water to the desired concentration. To test for protective activity, young wheat plants are sprayed with the preparation of active compound at the stated application rate. 1 day after the treatment, the plants are inoculated with an aqueous spore suspension of Leptosphaeria nodorum and then remain at 100% relative atmospheric humidity and 22° C. for 48 h. The plants are then placed in a greenhouse at 90% relative atmospheric humidity and a temperature of 22° C. Evaluation is carried out 7-9 days after the inoculation. 0% means an efficacy which corresponds to that of the control, whereas an efficacy of 100% means that no infection is observed. In this test, the following compounds according to the invention show, at an active compound concentration of 500 ppm, an efficacy of 70% or more: […]

In a further data set the test system is Septoria tritici. The data set can be described thus: Septoria tritici test (wheat)/protective. It is filed as in vivo. The following applies: Zymoseptoria tritici, 504 h, protective spray, evaluation 21 days after inoculation, read-out: Efficacy (%). As for the experimental part: Septoria tritici Test (Wheat)/Protective
(§4) Solvent: 49 parts by weight of N,N-dimethylacetamide
as §2
(§5) To produce a suitable preparation of active compound, 1 part by weight of active compound is mixed with the stated amounts of solvent and emulsifier, and the concentrate is diluted with water to the desired concentration. To test for protective activity, young plants are sprayed with the preparation of active compound at the stated application rate. After the spray coating has dried on, the plants are sprayed with a spore suspension of Septoria tritici. The plants remain in an incubation cabin at 20° C. and 100% relative atmospheric humidity for 48 hours. Thereafter, the plants are placed under a translucent hood at 15° C. and 100% relative air humidity for a further 60 hours. The plants are placed in a greenhouse at a temperature of about 15° C. and a relative atmospheric humidity of about 80%. Evaluation follows 21 days after the inoculation. 0% means an efficacy which corresponds to that of the control, whereas an efficacy of 100% means that no infection is observed.
as §3

Data set [1] relates to Blumeria graminis fsp. hordei. The data set can be described thus: Blumeria graminis test (barley)/protective. Particulars: 168 h, protective spray, evaluation 7 days after inoculation, read-out: Efficacy (%). It is filed as in vivo. As for the experimental part: Blumeria graminis Test (Barley)/Protective
as §4, §2
To produce a suitable preparation of active compound, 1 part by weight of active compound is mixed with the stated amounts of solvent and emulsifier, and the concentrate is diluted with water to the desired concentration. To test for protective activity, young plants are sprayed with the preparation of active compound at the stated application rate. After the spray coating has dried on, the plants are dusted with spores of Blumeria graminis fsp. hordei. The plants are placed in a greenhouse at a temperature of about 18° C. and a relative air humidity of about 80% to promote the development of mildew pustules. Evaluation follows 7 days after the inoculation. 0% means an efficacy which corresponds to that of the control, whereas an efficacy of 100% means that no infection is observed.
as §3

Data set [2] is described as follows: log P by HPLC on reversed-phase columns (C 18), EEC directive 79/831 Annex V.A8. The following applies: reversed-phase HPLC columns (C 18); method [a]: LC-MS, acidic range pH 2.7, 0.1% aqueous formic acid/acetonitrile, gradient 10% to 95% acetonitrile. It is filed as physicochemical. As for the experimental part: The log P values were measured according to EEC directive 79/831 Annex V.A8 by HPLC (High Performance Liquid Chromatography) on reversed-phase columns (C 18), using the methods below: [a] The LC-MS determination in the acidic range is carried out at pH 2.7 with 0.1% aqueous formic acid and acetonitrile (contains 0.1% formic acid) as mobile phases; linear gradient from 10% acetonitrile to 95% acetonitrile.

In another data set the test system is Puccinia triticina. The data set can be described thus: Puccinia triticina test (wheat)/protective. It is filed as in vivo. Particulars: 192 h, protective spray, evaluation 8 days after inoculation, read-out: Efficacy (%). As for the experimental part:
Puccinia triticina Test (Wheat)/Protective
as §4, §2
as §5, with “sprayed with spores with a spore” for “sprayed with a spore”, “suspension of Puccinia triticina. The plants” for “suspension of Septoria tritici. The plants”, “48 hours. The plants” for “48 hours. Thereafter, the plants are placed under a translucent hood at 15° C. and 100% relative air humidity for a further 60 hours. The plants”, “of about 20° C. and” for “of about 15° C. and”, “Evaluation follows 8 days after” for “Evaluation follows 21 days after”
as §3

The subject of a further data set is Uromyces appendiculatus. The data set can be described thus: Uromyces test (bean)/protective. It is filed as in vivo. The following applies: 240 h, protective spray, evaluation 10 days after inoculation, read-out: Efficacy (%). As for the experimental part:
Uromyces Test (Bean)/Protective
(§6) Solvents: 24.5 parts by weight of acetone
(§7) • 24.5 parts by weight of dimethylacetamide Emulsifier: 1 part by weight of alkylaryl polyglycol ether
To produce a suitable preparation of active compound, 1 part by weight of active compound is mixed with the stated amounts of solvent and emulsifier, and the concentrate is diluted with water to the desired concentration. To test for protective activity, young plants are sprayed with the preparation of active compound at the stated application rate. After the spray coating has dried on, the plants are inoculated with an aqueous spore suspension of the bean rust pathogen Uromyces appendiculatus and then remain in an incubation cabin at about 20° C. and 100% relative atmospheric humidity for 1 day. The plants are then placed in the greenhouse at about 21° C. and a relative atmospheric humidity of about 90%. Evaluation follows 10 days after the inoculation. 0% means an efficacy which corresponds to that of the control, whereas an efficacy of 100% means that no infection is observed.
(§8) In this test, the following compounds according to the invention show, at an active compound concentration of 100 ppm, an efficacy of 70% or more: […]

The subject of a further data set is Venturia inaequalis. The data set can be described thus: Venturia test (apple)/protective. The following applies: 240 h, protective spray, evaluation 10 days after inoculation, read-out: Efficacy (%). It is filed as in vivo. As for the experimental part: Venturia Test (Apple)/Protective
as §6, §7
To produce a suitable preparation of active compound, 1 part by weight of active compound is mixed with the stated amounts of solvent and emulsifier, and the concentrate is diluted with water to the desired concentration. To test for protective activity, young plants are sprayed with the preparation of active compound at the stated application rate. After the spray coating has dried on, the plants are inoculated with an aqueous conidia suspension of the apple scab pathogen Venturia inaequalis and then remain in an incubation cabin at approx. 20° C. and 100% relative air humidity for 1 day. The plants are then placed in the greenhouse at about 21° C. and a relative atmospheric humidity of about 90%. Evaluation follows 10 days after the inoculation. 0% means an efficacy which corresponds to that of the control, whereas an efficacy of 100% means that no infection is observed.
as §8

Broadly, the chromatographic logP is lipophilicity estimated from chromatographic retention. A high value points to higher lipophilicity. On to `CC(C)C(O)(CSc1ccc(SC(F)(F)F)cc1)c1cncnc1` (centres unmarked) [Compound 3], for which the pest or weed control at 500 ppm worked out at 94% in the data set with Sphaerotheca fuliginea; 95% with Alternaria solani; 90% with Leptosphaeria nodorum; 75% with Septoria tritici; 100% in data set [1]. This compound also came in with a chromatographic logP in data set [2] of 3.28.

In the case of `CC(C)(C)C(O)(COc1ccc(OC(F)(F)F)cc1Cl)c1cncnc1` (centres unmarked) [Compound 29], the results for the pest or weed control at 500 ppm in the data set with Sphaerotheca fuliginea, in the data set with Alternaria solani and in the data set with Leptosphaeria nodorum were 100%, 78% and 75%, respectively. Also, the chromatographic logP in data set [2] amounted to 3.47.

Regarding `CC(C)(C)C(O)(COc1ccc(OC(F)F)cc1)c1cncnc1` (centres unmarked) [Compound 34], the pest or weed control at 500 ppm was 95% with Sphaerotheca fuliginea, 95% in the data set with Alternaria solani and 100% in the data set with Leptosphaeria nodorum. Further, the chromatographic logP in data set [2] is 2.63.

With `Cc1cc(OC(F)(F)F)ccc1OCC(O)(c1cncnc1)C(C)(C)C` (centres unmarked) [Compound 30], the pest or weed control at 500 ppm in the data set with Puccinia triticina is 100%; with Sphaerotheca fuliginea, 100%; with Alternaria solani it was 90%; in the data set on Leptosphaeria nodorum it was 89%; with Septoria tritici it was 71%; in data set [1], 100%. Also, the pest or weed control at 100 ppm in the data set with Uromyces appendiculatus came to 100%; in the data set on Venturia inaequalis it was 98%. In [2], this compound had a chromatographic logP of 3.59.

As to `CC(C)(C)C(O)(COc1ccc(SC(F)(F)F)c(Cl)c1)c1cncnc1` (centres unmarked) [Compound 31], the pest or weed control at 500 ppm in the data set with Sphaerotheca fuliginea was 100%; in the data set with Alternaria solani it was 95%; in the data set with Leptosphaeria nodorum it was 95%. Also, the pest or weed control at 100 ppm with Uromyces appendiculatus was found to be 100%; in the data set on Venturia inaequalis, 99%. Moreover, in data set [2], the chromatographic logP was 3.76.

On to `CC(C)(C)C(O)(COc1ccc(S(=O)(=O)C(F)(F)F)cc1)c1cncnc1` (centres unmarked) [Compound 33], for which the pest or weed control at 500 ppm in the data set on Puccinia triticina amounted to 100%; in the data set with Sphaerotheca fuliginea, 95%; with Alternaria solani, 89%; in the data set with Leptosphaeria nodorum, 94%; in data set [1] it was 100%. In addition, the pest or weed control at 100 ppm in the data set with Uromyces appendiculatus amounted to 100%; in the data set with Venturia inaequalis, 99%. In [2], this compound came in with a chromatographic logP of 2.82.

For `CC1(C(O)(COc2ccc(SC(F)(F)F)cc2)c2cncnc2)CC1` (centres unmarked) [Compound 19], the pest or weed control at 500 ppm worked out at 100% in the data set on Puccinia triticina; 95% with Sphaerotheca fuliginea; 90% in the data set on Alternaria solani; 95% with Leptosphaeria nodorum; 86% in the data set with Septoria tritici; 100% in data set [1]. The same compound registered a chromatographic logP in [2] of 3.3.

(Values after patent US9241487B2, “Pyrimidine derivatives and use thereof as pesticides” (BAYER INTELLECTUAL PROPERTY GMBH, priority 2010, dated 2016).)
